Reference: patent US20230265068A1, “TRANSIENT RECEPTOR POTENTIAL CANONICAL 3 INHIBITORS AND METHODS OF USE THEREOF” (University of Tennessee Research Foundation, priority 2020, published 2023)

How the values were obtained:
rTRPV4 = target: T1, rTRPV4 (Rattus norvegicus, UniProt Q9ERZ8); assay: whole-cell patch clamp selectivity, HEK 293 cells overexpressing rTRPV4; format: cell-based; conditions: HEK293, with agonist, solutions without Ca2+, read-out: % of the current of rTRPV4 inhibited
T1 construct: expressed in transfected cells; host or cells: HEK293, transient transfection, pMO vector
Procedure: (§1) Human embryonic kidney 293 (HEK293; catalog number CRL-1573) cells were cultured in Dulbecco's modified Eagle's medium (Invitrogen) supplemented with 10% fetal bovine serum and 1% penicillin-streptomycin at 37° C. and 5% CO2. Constructs cloned in pMO (a pcDNA3-modified vector) were co-transfected with GFP-pMO, using Lipofectamine 2000 (Invitrogen) according to the manufacturer's instructions. Macroscopic currents in the whole-cell patch clamp configuration were recorded 18-24 h post-transfection. The extracellular solution contained 140 mM NaCl, 6 mM KCl, 2 mM MgCl2, 10 mM HEPES, and 10 mM glucose (pH 7.4). Pipettes were made of borosilicate glass (outer diameter, 1.5 mm; inner diameter, 1.10 mm; Sutter Instruments) and fire-polished with a resistance between 2.8 and 4.0 megaohms when filled with an intracellular solution that contained 140 mM CsCl, 5 mM EGTA, and 10 mM HEPES, pH 7.2. Currents were recorded with a Multiclamp 700B amplifier (Molecular Devices) using a 1-s ramp from −100 to 100 mV. […] Data were acquired with a sampling rate of 20 kHz, low-pass filtered (10 kHz), and analyzed offline using Clampfit v10.4.2.0 (Molecular Devices). […]

hippocampal neurons [1] = assay: neuroprotection against Aβ-containing conditioned medium (7PA2) in primary hippocampal neurons; format: cell-based, rat; conditions: 14 DIV neurons, 7PA2 medium, 16 hours, different concentrations
Procedure: To visualize dendritic spines, 14 DIV hippocampal neurons at low density (5,000 cells per 35 mm dish) were exposed to 7PA2 conditioned media (CM), which contains naturally secreted Aβ, or CHO control media or for 16 h, with or without cotreatment with the two inhibitor compounds, followed by immunocytochemistry with MAP2 and DAPI counterstaining.
(§2) To explore the potential biological effects of compound 22 in a TRPC3 related disease model, its neuroprotective ability in primary cultured neurons (14 DIV prepared from E17 rats as described) was evaluated. The effects on neuron dendritic morphology were measured by imaging. Mature hippocampal neurons (DIV=14) were treated with CHO control medium, or naturally secreted Aβ-containing conditioned medium (7PA2), or in combination with compound 22 or Pyr3 at different concentrations, for 16 hours, followed by immunocytochemistry using an antibody against MAP2 and DAPI (data not shown). […] Hippocampal neurons (DIV=14) were treated with compound 22 or Pyr3 alone at different concentrations, followed by immunocytochemistry staining with MAP2 and DAPI (data not shown).

[2] = tested on: pilocarpine-induced seizures; assay: mouse pilocarpine model of SE; format: in vivo, mice
Procedure: (FIG. 7A) Mice were treated by pilocarpine (220 mg/kg, i.p.) for seizure induction, and behavioral seizures were scored every 5 min based a modified Racine scale. After stage-2 behavioral seizures were established (usually about 15-20 min after pilocarpine injection), mice were treated by either vehicle or compound 22 (100 mg/kg, i.p.). […] (FIG. 7B) Maximal seizure scores in mice after pilocarpine injection (p<0.0001, t-test). (FIG. 7C) Latency to partial (stage-3) seizures (p=0.0002, t-test). (FIG. 7D) Latency to generalized (stage-4) seizures (p=0.0001, t-test). (FIG. 7E) Percentage of animals that experienced stage-5 seizures or SE (p<0.0001, Fisher's exact test). (FIG. 7F) Percentage of animals survived pilocarpine-induced seizures (p=0.1649, Fisher's exact test). Data are presented as mean+/±SEM.
Mouse Pilocarpine Model of SE. Mice were first injected with methylscopolamine and terbutaline (2 mg/kg each in saline, i.p.) to minimize the unwanted effects of pilocarpine in the periphery. Thirty minutes later, pilocarpine (250 mg/kg in saline, freshly prepared, i.p.) was injected to induce seizures in mice. To determine the anti-seizure effects of compound 22, compound 22 was administered either before pilocarpine injection or after the behavioral seizures were well established. Control mice received methylscopolamine and terbutaline, followed by saline injection instead of pilocarpine. Behavioral seizures were classified using a modified Racine scale as we previously described (Table 5).^22-25 SE was defined by non-intermittent seizure activity (stage 5), which was indicated by continuous generalized clonic seizures without returning to lower-stage seizures (Table 5).

hippocampal neurons [3] = assay: toxicity of compound alone in hippocampal neuronal culture; format: cell-based, rat; conditions: compound alone at different concentrations
Procedure: as §2

hTRPA1 = target: T2, hTRPA1 (Homo sapiens, UniProt O75762); assay: whole-cell patch clamp selectivity, HEK 293 cells overexpressing hTRPA1; format: cell-based; conditions: HEK293, with agonist, solutions without Ca2+, read-out: % of the current of hTRPA1 inhibited
T2 construct: expressed in transfected cells; host or cells: HEK293, transient transfection, pMO vector
Procedure: as §1

[4] = single dose 100 mg/kg, i.p after onset of seizures (stage 2)

T2 sequence (O75762 whole entry): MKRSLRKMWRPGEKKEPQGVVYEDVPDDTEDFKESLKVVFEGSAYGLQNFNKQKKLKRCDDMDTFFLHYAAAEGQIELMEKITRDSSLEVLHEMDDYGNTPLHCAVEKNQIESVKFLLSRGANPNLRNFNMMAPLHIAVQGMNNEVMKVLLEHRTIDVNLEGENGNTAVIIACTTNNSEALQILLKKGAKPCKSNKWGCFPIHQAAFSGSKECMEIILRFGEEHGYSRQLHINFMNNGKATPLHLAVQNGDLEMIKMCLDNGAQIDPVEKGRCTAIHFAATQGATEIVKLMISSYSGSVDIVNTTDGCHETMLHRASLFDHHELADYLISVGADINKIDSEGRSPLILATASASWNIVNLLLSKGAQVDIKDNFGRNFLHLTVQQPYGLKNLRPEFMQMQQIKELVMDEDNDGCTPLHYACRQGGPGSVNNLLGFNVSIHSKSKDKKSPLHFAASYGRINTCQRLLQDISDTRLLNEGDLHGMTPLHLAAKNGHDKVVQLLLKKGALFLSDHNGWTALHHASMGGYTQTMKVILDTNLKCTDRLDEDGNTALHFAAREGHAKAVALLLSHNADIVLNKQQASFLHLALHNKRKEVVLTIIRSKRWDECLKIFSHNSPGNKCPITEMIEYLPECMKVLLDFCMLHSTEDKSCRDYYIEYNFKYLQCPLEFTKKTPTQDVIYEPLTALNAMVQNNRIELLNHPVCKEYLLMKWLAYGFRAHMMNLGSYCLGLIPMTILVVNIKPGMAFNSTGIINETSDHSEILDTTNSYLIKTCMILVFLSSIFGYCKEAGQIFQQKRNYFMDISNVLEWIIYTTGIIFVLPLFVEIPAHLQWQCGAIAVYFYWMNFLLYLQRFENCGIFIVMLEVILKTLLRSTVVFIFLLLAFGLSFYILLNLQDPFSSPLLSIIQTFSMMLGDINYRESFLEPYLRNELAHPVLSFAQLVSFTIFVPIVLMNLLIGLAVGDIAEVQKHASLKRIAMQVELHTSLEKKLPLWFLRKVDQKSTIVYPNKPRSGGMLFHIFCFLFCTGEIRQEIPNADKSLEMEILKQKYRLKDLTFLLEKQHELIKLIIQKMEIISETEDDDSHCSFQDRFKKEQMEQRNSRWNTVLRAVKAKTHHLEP
T1 sequence (Q9ERZ8 whole entry): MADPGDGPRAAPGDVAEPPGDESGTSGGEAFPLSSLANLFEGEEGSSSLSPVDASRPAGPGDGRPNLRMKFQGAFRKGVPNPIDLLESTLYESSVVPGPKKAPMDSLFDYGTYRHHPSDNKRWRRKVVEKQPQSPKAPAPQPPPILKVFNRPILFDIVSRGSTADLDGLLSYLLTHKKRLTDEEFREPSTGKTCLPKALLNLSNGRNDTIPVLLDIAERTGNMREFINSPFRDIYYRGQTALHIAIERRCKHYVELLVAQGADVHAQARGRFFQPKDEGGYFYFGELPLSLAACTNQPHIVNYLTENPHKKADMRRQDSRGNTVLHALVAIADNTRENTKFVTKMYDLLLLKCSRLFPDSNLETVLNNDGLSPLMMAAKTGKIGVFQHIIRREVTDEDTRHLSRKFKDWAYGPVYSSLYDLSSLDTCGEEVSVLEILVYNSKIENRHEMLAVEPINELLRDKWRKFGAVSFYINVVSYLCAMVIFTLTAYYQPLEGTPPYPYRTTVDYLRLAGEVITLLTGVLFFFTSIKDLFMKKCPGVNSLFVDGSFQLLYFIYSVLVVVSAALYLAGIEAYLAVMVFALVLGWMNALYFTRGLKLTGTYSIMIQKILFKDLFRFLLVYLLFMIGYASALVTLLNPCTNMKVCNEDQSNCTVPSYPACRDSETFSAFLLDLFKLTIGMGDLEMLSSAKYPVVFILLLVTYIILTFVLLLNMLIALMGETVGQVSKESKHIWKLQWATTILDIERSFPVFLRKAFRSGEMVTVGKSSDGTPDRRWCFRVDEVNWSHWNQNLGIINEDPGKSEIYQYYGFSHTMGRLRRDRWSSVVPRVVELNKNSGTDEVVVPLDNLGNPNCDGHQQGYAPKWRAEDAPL

CCNC(=O)c1cnn(-c2ccc(-n3ccc(Cl)c(Cl)c3=O)cc2)c1C(F)(F)F [Compound 22]
inhibition at 10 µM (rTRPV4): < 5% | protection against Aβ-induced damage to dendrites (MAP2/DAPI) (hippocampal neurons [1]): protect against Aβ-induced damage to dendrites | scores of pilocarpine-induced seizures (modified Racine scale) ([2]; 100 mg/kg, i.p. after stage-2 seizures established, vs vehicle): reduced the scores of pilocarpine-induced seizures | electrographic seizures (electroencephalography) ([2]; after pilocarpine injection): diminished electrographic seizures | maximal seizure scores during a 90-minute observation [2, 4]: decreased | overall seizure intensity [2, 4]: decreased the overall seizure intensity | initiation of behavioral seizures ([2]; systemic treatment before pilocarpine injection): significantly impaired the initiation of behavioral seizures | toxicity in neuronal culture (hippocampal neurons [3]): lack of toxicity | inhibition at 10 µM (hTRPA1): < 5%
